Measurements as given in patent EP0452101B1, “Spiro bridged and unbridged heterocyclic compounds” (ISRAEL INSTITUTE FOR BIOLOGICAL RESEARCH, priority 1990, dated 1991).
Like-named read-outs stand apart in the source and are kept apart here.

Experiments:
scopolamine-treated rats = test: Passive avoidance (PA) in scopolamine-treated rats; type: in vivo, Sprague-Dawley rats
Method: Naive male Sprague-Dawley rats, three months old (obtained from Charles River Breeding, U.K.), were used (weighing 200-300 g.). The passive avoidance (PA) test is according to Fisher et al, Neurosci. Lett. 102: 325 (1989), except that in these rats amnesia was induced by scopolamine.
Eight groups of 17-20 naive rats were used. Each group was divided into two subgroups of 7-10 rats each: subgroup 1 was injected with scopolamine HBr (0.5 mg./kg. in saline, s.c., 15 min. before the shock) and subgroup 2 was injected with saline (1 ml./kg., s.c., 15 min. before the shock). Seven of the groups were treated within one minute after the shock with one of the following doses of the tested compound: 0.1, 0.5, 1, 3, 5, 8, 10 mg./kg. (in saline, i.p.) and one group received saline (1 ml./kg., i.p.).
Eight groups of 18-20 naive rats each were used. Each group was divided into two subgroups of 9-10 rats each: subgroup 1 was injected with scopolamine HBr (0.5 mg./kg. in saline, s.c., 15 min. before the shock) and subgroup 2 was injected with saline (1 ml./kg., s.c., 15 min. before the shock). Seven of the groups were treated, within one minute after the shock, with one of the following doses of AF125(N): 0.1, 0.5, 1, 3, 5, 8 or 10 mg./kg. (in saline, i.p.) and one group received saline (1 ml./kg., i.p.).

[1] = Chemical stability (thermal, aqueous solution); type: physicochemical
Source text: Most of these compounds are relatively stable. […] Its chemical behaviour resembles that of known 2-oxazoline derivatives. […] The formation of the decomposition products can be monitored with ^1H-NMR by inspection at two regions δ 3.3-3.5 (appearance of two doublets) and 1.9-2.0 ppm (appearance of two additional singlets).
The expected decomposition pattern (when e.g., X is O and Y is N) involves opening of the oxazoline ring to form both amide and ester as shown in Scheme E, in which the quinuclidine-derived compounds are depicted illustratively. The formation of two new singlets at δ 1.9-2.0 ppm as expected for R = Me of these two structures are in agreement with this supposition. [drawing 32]
Ring opening is much faster in the presence of dilute hydrochloric acid. […] The tendency to decomposition of such salts complicates the optical separation of compounds such as AF125 and AF123. However, this problem can be overcome by using the method described for the optical separation of the enantiomers of AF125, or alternatively the amino-alcohols such as 3-aminomethylquinuclidin-3-ol can be resolved and the separated enantiomers can then be cyclized using an ester or imidate as already described. In yet another alternative the N-acyl derivatives of (e.g.) 3-aminomethylquinuclidin-3-ol can be resolved and the separated enantiomers can then be cyclized per se as shown in Scheme K: [drawing 33] […]

M1 muscarinic receptor = target: T1, M1 muscarinic receptor (Rattus norvegicus, UniProt P08482); test: Displacement of 3H-QNB from rat cerebral cortex, 50 mM phosphate buffer; type: binding
T1 sequence (P08482 1-460): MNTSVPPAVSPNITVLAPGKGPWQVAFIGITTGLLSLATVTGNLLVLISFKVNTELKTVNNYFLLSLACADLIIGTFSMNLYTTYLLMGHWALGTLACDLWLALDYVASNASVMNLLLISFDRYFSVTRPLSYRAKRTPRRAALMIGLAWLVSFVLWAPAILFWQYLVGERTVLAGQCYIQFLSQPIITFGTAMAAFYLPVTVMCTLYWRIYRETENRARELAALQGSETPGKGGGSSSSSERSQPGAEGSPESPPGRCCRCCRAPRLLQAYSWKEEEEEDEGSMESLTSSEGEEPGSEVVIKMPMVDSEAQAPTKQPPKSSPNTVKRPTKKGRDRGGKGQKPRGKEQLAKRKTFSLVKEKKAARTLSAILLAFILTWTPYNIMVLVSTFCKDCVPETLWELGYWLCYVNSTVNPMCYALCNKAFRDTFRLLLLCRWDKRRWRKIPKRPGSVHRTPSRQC

AF64A-treated rats = test: Passive avoidance (PA) in AF64A-treated rats; type: in vivo; details: for Retention latency after 72 hours: i.p.
Source text: This animal model mimics to a certain extent the cholinergic hypofunction in SDAT (Fisher and Hanin, Ann. Rev. Pharmacol. Toxicol. 26: 161-181, 1986). The method described in Fisher et al (J. Pharmacol. Exptl. Therap., 1991, in the press) and in Fisher et al (Neurosci. Lett. 102: 325-331, 1989) was used here.
No significant differences were found among the different groups of animals tested in the initial latency test; the initial latency ranged from 20 and 31 seconds. In all the experiments using AF150, the compound as free base was dissolved in 10 mM phosphate buffer having pH 7.35.

[2] = post-shock AF125 0.1 mg/kg i.p., pre-shock Saline
[3] = post-shock AF125 0.1 mg/kg i.p., pre-shock Scopolamine
[4] = post-shock AF125 0.5 mg/kg i.p., pre-shock Saline
[5] = post-shock AF125 0.5 mg/kg i.p., pre-shock Scopolamine
[6] = post-shock AF125 1.0 mg/kg i.p., pre-shock Saline
[7] = post-shock AF125 1.0 mg/kg i.p., pre-shock Scopolamine
[8] = post-shock AF125 3.0 mg/kg i.p., pre-shock Saline
[9] = post-shock AF125 3.0 mg/kg i.p., pre-shock Scopolamine
[10] = post-shock AF125 5.0 mg/kg i.p., pre-shock Saline
[11] = post-shock AF125 5.0 mg/kg i.p., pre-shock Scopolamine
[12] = post-shock AF125 8.0 mg/kg i.p., pre-shock Saline
[13] = post-shock AF125 8.0 mg/kg i.p., pre-shock Scopolamine
[14] = post-shock AF125 10.0 mg/kg i.p., pre-shock Saline
[15] = post-shock AF125 10.0 mg/kg i.p., pre-shock Scopolamine

## CC1=NCC2(CN3CCC2CC3)O1 (racemic) [AF125, 2-Methyl-spiro(1,3 oxazoline-5,3')quinuclidine]
scopolamine-treated rats; 3 mg./kg. i.p., pre-shock saline treated rats
  side effects: slight diarrhea
scopolamine-treated rats; 5 mg./kg. i.p., pre-shock saline treated rats
  side effects: stronger diarrhea
scopolamine-treated rats; 8 and 10 mg./kg. i.p., pre-shock saline treated rats
  side effects: severe diarrhea with lacrimation
scopolamine-treated rats; [2]
  Initial latency, Mean: 49.5
  Retention latency, Mean: 572.8
scopolamine-treated rats; [3]
  Initial latency, Mean: 33.6
  Retention latency, Mean: 128.8
scopolamine-treated rats; [4]
  Initial latency, Mean: 42.0
  Retention latency, Mean: 600.0
scopolamine-treated rats; [5]
  Initial latency, Mean: 47.4
  Retention latency, Mean: 222.7
scopolamine-treated rats; [6]
  Initial latency, Mean: 36.0
  Retention latency, Mean: 555.8
scopolamine-treated rats; [7]
  Initial latency, Mean: 23.3
  Retention latency, Mean: 261.2
scopolamine-treated rats; [8]
  Initial latency, Mean: 51.9
  Retention latency, Mean: 530.4
scopolamine-treated rats; [9]
  Initial latency, Mean: 47.3
  Retention latency, Mean: 296.0
scopolamine-treated rats; [10]
  Initial latency, Mean: 34.7
  Retention latency, Mean: 426.7
scopolamine-treated rats; [11]
  Initial latency, Mean: 51.3
  Retention latency, Mean: 227.3
scopolamine-treated rats; [12]
  Initial latency, Mean: 41.2
  Retention latency, Mean: 594.1
scopolamine-treated rats; [13]
  Initial latency, Mean: 53.9
  Retention latency, Mean: 294.9
scopolamine-treated rats; [14]
  Initial latency, Mean: 46.3
  Retention latency, Mean: 498.3
scopolamine-treated rats; [15]
  Initial latency, Mean: 45.9
  Retention latency, Mean: 288.3
scopolamine-treated rats; pre-shock scopolamine treated rats
  side effects: did not exhibit any side effects
[1]
  thermal stability: thermally stable and can be distilled at 130° without decomposition

## CC1=NCC2(CCN(C)CC2)O1 [AF150, 2-Methyl-spiro(1,3-oxazoline-5,4')-1'-methylpiperidine]
M1 muscarinic receptor; KH2 cerebellum : KH1 cortex (3H-QNB)
  RATIOS c:a: 3.5
M1 muscarinic receptor; KL1 : KH1 cortex (3H-QNB)
  RATIOS b:a: 49
M1 muscarinic receptor; KL2 cerebellum : KL1 cortex (3H-QNB)
  RATIOS d:b: 17
M1 muscarinic receptor; cortex, Table 5
  % H1: 13%
  % L1: 87%
Mice, Male CD strain; 1 mg./kg. i.p., any time of observation
  analgesia (tail pinch): No analgesia
Mice, Male CD strain; 5 mg./kg i.p., 15 minutes after injection
  analgesia (tail pinch): Partial analgesia
Mice, Male CD strain; 10 mg./kg. i.p., 15 and 30 minutes
  analgesia (tail pinch): complete
Mice, Male CD strain; 10 mg./kg. i.p., ≥ 60 minutes
  analgesia (tail pinch): no analgesia
AF64A-treated rats; AF150 0.1 mg./kg., rats treated with AF64A (3 nmole/2µl./side, icv)
  Retention latency after 72 hours: 449.5 ± 52.1 s
AF64A-treated rats; AF150 0.1 mg./kg., rats treated with saline
  Retention latency after 72 hours: 511.8 ± 45.7 s
AF64A-treated rats; AF150 0.2 mg./kg., rats treated with AF64A
  Retention latency after 72 hours: 481.1 ± 54.3 s
AF64A-treated rats; AF150 0.2 mg./kg., rats treated with saline
  Retention latency after 72 hours: 479.1 ± 57.2 s
AF64A-treated rats; AF150 1.0 mg./kg., rats treated with AF64A
  Retention latency after 72 hours: 600.0 ± 0 s
AF64A-treated rats; AF150 1.0 mg./kg., rats treated with saline
  Retention latency after 72 hours: 571.6 ± 28.4 s
AF64A-treated rats; administered orally at 0.2 and 1.0 mg./kg., free base, AF64A-treated rats (not shown)
  retention latency: improved significantly
